This is an account of results in the NIST ThermoML archive (doi:10.1016/j.jct.2018.07.014).

± gives the expanded uncertainty stated by the source.

The conditions of one series: 298.2 K; 101.33 kPa; Liquid; buoyancy.
One may read the mass density as the mass of a sample divided by its volume. `CCCOC(C)=O` [propyl ethanoate]: the mass density came out at 881.51 ± 2.9 kg/m3. The same measure, in the same setting: the result for `Cc1cc(C)cc(C)c1` [1,3,5-trimethylbenzene] reads 859.7 ± 2.9 kg/m3; that for `CCCCC(C)=O` [2-hexanone], 806.37 ± 2.8 kg/m3.

The series is the same for the next values; noted with them: 323.2 K; 101.33 kPa; Liquid; buoyancy.
For `Cc1cccc(O)c1` [3-methylphenol], the mass density is listed as 1009.2 ± 3.1 kg/m3.

For `Cc1ccc(O)cc1` [4-methylphenol], the mass density is reported as 1011.3 ± 3.2 kg/m3. The same measure, in the same setting: the same measure for `Cc1ccccc1O` [2-methylphenol]: 1018.8 ± 3.2 kg/m3.
